Measured values published in patent US20220298138A1, “ENZYME INHIBITORS” (KALVISTA PHARMACEUTICALS LIMITED, priority 2019, published 2022).
Where two headings read alike, the source gives them in different places.

Target: T1, Human Factor XIIa (Homo sapiens, UniProt P00748)
T1 construct: purchased Enzyme Research Laboratories
T1 sequence (P00748 373-615 limits assumed): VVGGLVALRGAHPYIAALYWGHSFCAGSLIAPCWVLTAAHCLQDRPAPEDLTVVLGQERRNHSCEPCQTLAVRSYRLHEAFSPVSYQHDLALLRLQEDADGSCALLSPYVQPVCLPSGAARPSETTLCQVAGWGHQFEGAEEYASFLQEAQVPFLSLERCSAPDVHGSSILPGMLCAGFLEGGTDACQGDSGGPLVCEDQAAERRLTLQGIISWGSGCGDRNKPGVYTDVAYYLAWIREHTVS
Assay: Factor XIIa inhibitory activity in vitro (fluorogenic substrate H-DPro-Phe-Arg-AFC)
Type: biochemical
Settings: 25° C., read-out: Human FXIIa IC50
Description: Determination of the % Inhibition for FXIIa
Human Factor XIIa (Enzyme Research Laboratories) was incubated at 25° C. with the fluorogenic substrate H-DPro-Phe-Arg-AFC and various concentrations of the test compound. Residual enzyme activity (initial rate of reaction) was determined by measuring the change in […] at 410 nm and the IC50 value for the test compound was determined.

Row | IC50 (class symbols) [µM] | IC50 (numeric bound instead of class symbol) [µM] | SMILES
1 | 10 to 40 | – | CC(C)c1nc(C(=O)N[C@@H](Cc2ccc(F)c(F)c2)C(=O)NCc2ccc3c(N)nccc3c2)cs1 [Example 0.91]
2 | 1 to 3 | – | C[C@@H]1CCC[C@H](C)N1CC(=O)N[C@H](Cc1ccc(F)c(F)c1)C(=O)NCc1ccc2c(N)nccc2c1 [Example 3.17]
3 | 10 to 40 | – | Nc1nccc2cc(CNC(=O)[C@H](Cc3ccc(F)c(F)c3)NC(=O)CCn3cc(C(F)(F)F)ccc3=O)ccc12 [Example 3.29]
4 | – | > 12.7 | Cc1nc(C(F)(F)F)ccc1C(=O)N[C@@H](Cc1ccc(F)c(F)c1)C(=O)NCc1ccc2c(N)nccc2c1 [Example 0.63]
5 | 3 to 10 | – | Nc1nccc2cc(CNC(=O)[C@H](Cc3ccc(F)c(F)c3)NC(=O)C(F)F)ccc12 [Example 0.66]
6 | 10 to 40 | – | Nc1nccc2cc(CNC(=O)[C@H](Cc3ccc(F)c(F)c3)NC(=O)c3cc4ccccc4[nH]3)ccc12 [Example 0.85]
7 | 10 to 40 | – | Cc1nn(C)c(C)c1CCC(=O)N[C@@H](Cc1ccc(F)c(F)c1)C(=O)NCc1ccc2c(N)nccc2c1 [Example 20.08]
8 | 0.28 to 1 | – | CC(C)N(C)CC(=O)N[C@@H](Cc1ccc(F)c(F)c1)C(=O)NCc1ccc2c(N)nccc2c1 [Example 3.08]
9 | 0.1 to 0.279 | – | C[C@@H]1CCC[C@H](C)N1CC(=O)N[C@@H](Cc1ccccc1)C(=O)NCc1ccc2c(N)nccc2c1 [Example 3.11]
10 | 10 to 40 | – | Cc1nc2ccccn2c1C(=O)N[C@@H](Cc1ccc(F)c(F)c1)C(=O)NCc1ccc2c(N)nccc2c1 [Example 0.53]
11 | 3 to 10 | – | CC(C)N[C@H](CCc1ccccc1)C(=O)N[C@@H](Cc1ccc(F)c(F)c1)C(=O)NCc1ccc2c(N)nccc2c1 [Example 12.12]
12 | 3 to 10 | – | C[C@H](NC(=O)CN1[C@H](C)CCC[C@@H]1C)C(=O)NCc1ccc2c(N)nccc2c1 [Example 39.02]
13 | 3 to 10 | – | CS(=O)(=O)c1cccc(C(=O)N[C@@H](Cc2ccc(F)c(F)c2)C(=O)NCc2ccc3c(N)nccc3c2)c1 [Example 0.47]
14 | 10 to 40 | – | CC(C)n1cc(C(=O)N[C@@H](Cc2ccc(F)c(F)c2)C(=O)NCc2ccc3c(N)nccc3c2)cn1 [Example 0.07]
15 | 3 to 10 | – | C[C@@H]1CCC[C@H](C)N1CC(=O)N[C@@H](Cc1ccc(Cl)cc1)C(=O)NCc1ccc2c(N)nccc2c1 [Example 3.12]
16 | 3 to 10 | – | CC(C)c1cc(C(=O)N[C@@H](Cc2ccc(F)c(F)c2)C(=O)NCc2ccc3c(N)nccc3c2)[nH]n1 [Example 0.54]
17 | 3 to 10 | – | CS(=O)(=O)c1cccc(CC(=O)N[C@@H](Cc2ccc(F)c(F)c2)C(=O)NCc2ccc3c(N)nccc3c2)c1 [Example 3.24]
18 | 0.1 to 0.279 | – | C[C@@H]1CCC[C@H](C)N1CC(=O)N[C@@H](Cc1cccc(Cl)c1)C(=O)NCc1ccc2c(N)nccc2c1 [Example 3.13]
19 | 10 to 40 | – | Nc1nccc2cc(CNC(=O)[C@H](Cc3ccc(F)c(F)c3)NC(=O)c3ccc4c(c3)CC=C(O)N4)ccc12 [Example 0.76]
20 | 10 to 40 | – | Nc1nccc2cc(CNC(=O)[C@H](Cc3ccc(F)c(F)c3)NC(=O)c3nc4ccccc4[nH]c3=O)ccc12 [Example 0.74]
21 | 10 to 40 | – | Nc1nccc2cc(CNC(=O)[C@H](Cc3ccc(F)c(F)c3)NC(=O)CN3CCCCC3=O)ccc12 [Example 3.39]
22 | 10 to 40 | – | N#Cc1ccc(C(=O)N[C@@H](Cc2ccc(F)c(F)c2)C(=O)NCc2ccc3c(N)nccc3c2)nc1 [Example 0.11]
23 | 0.28 to 1 | – | CC(C)N[C@H](CCCCN1CCOCC1)C(=O)N1CC[C@H]1C(=O)NCc1ccc2[nH]cc(Cl)c2c1 [Example 10.20]
24 | 10 to 40 | – | Nc1nccc2cc(CNC(=O)[C@H](Cc3ccc(F)c(F)c3)NC(=O)c3cccc(Cn4cccn4)c3)ccc12 [Example 0.68]
25 | 10 to 40 | – | Cc1ccnn1CCC(=O)N[C@@H](Cc1ccc(F)c(F)c1)C(=O)NCc1ccc2c(N)nccc2c1 [Example 20.03]

Row | IC50 (class symbols) [µM] | IC50 (numeric bound instead of class symbol) [µM] | SMILES
26 | 3 to 10 | – | Cc1cccnc1C(=O)N[C@@H](Cc1ccc(F)c(F)c1)C(=O)NCc1ccc2c(N)nccc2c1 [Example 0.50]
27 | 10 to 40 | – | CN(C)[C@H](CCc1ccccc1)C(=O)N[C@@H](Cc1ccc(F)c(F)c1)C(=O)NCc1ccc2c(N)nccc2c1 [Example 0.19]
28 | 10 to 40 | – | Nc1nccc2cc(CNC(=O)[C@H](Cc3ccc(F)c(F)c3)NC(=O)Cc3cccnc3)ccc12 [Example 3.23]
29 | 10 to 40 | – | Nc1nccc2cc(CNC(=O)[C@H](Cc3ccc(F)c(F)c3)NC(=O)c3ccc4ncsc4c3)ccc12 [Example 0.40]
30 | 10 to 40 | – | Nc1nccc2cc(CNC(=O)[C@H](Cc3ccc(F)c(F)c3)NC(=O)COc3cccnc3)ccc12 [Example 20.02]
31 | 10 to 40 | – | CC(O)[C@H](NC(=O)CN1[C@H](C)CCC[C@@H]1C)C(=O)NCc1ccc2c(N)nccc2c1 (stereo partly drawn) [Example 39.06, (2S)—N-[(1-Aminoisoquinolin-6-yl)methyl]-2-{2-[(2R,6S)-2,6-dimethylpiperidin-1-yl]acetamido}-3-hydroxybutanamide]
32 | 10 to 40 | – | Nc1nccc2cc(CNC(=O)[C@H](Cc3ccc(F)c(F)c3)NC(=O)CN3CCOCC3)ccc12 [Example 3.07]
33 | 10 to 40 | – | CCOCCC(=O)N[C@@H](Cc1ccc(F)c(F)c1)C(=O)NCc1ccc2c(N)nccc2c1 [Example 20.04]
34 | 10 to 40 | – | CCCCOCC(=O)N[C@@H](Cc1ccc(F)c(F)c1)C(=O)NCc1ccc2c(N)nccc2c1 [Example 3.30]
35 | 10 to 40 | – | CC(C)(C)OC(=O)N[C@H](CCc1ccccc1)C(=O)NCC(=O)NCc1ccc2c(N)nccc2c1 [Example 6.01]
36 | 10 to 40 | – | C[C@@H]1CCC[C@H](C)N1CC(=O)N[C@@H](Cc1ccc(F)c(F)c1)C(=O)NCc1ccc2[nH]ncc2c1 [Example 34.07]
37 | 0.28 to 1 | – | CC(C)(NC(=O)[C@H](N)CCc1ccccc1)C(=O)NCc1ccc2c(N)nccc2c1 [Example 6.06]
38 | 3 to 10 | – | Cc1nocc1C(=O)N[C@@H](Cc1ccc(F)c(F)c1)C(=O)NCc1ccc2c(N)nccc2c1 [Example 0.21]
39 | 10 to 40 | – | CC1CCCC(C)N1CC(=O)NCCC(=O)NCc1ccc2c(N)nccc2c1 (stereo not shown) [Example 39.01]
40 | 10 to 40 | – | Nc1nccc2cc(CNC(=O)[C@H](Cc3ccc(F)c(F)c3)NC(=O)C[C@@H]3CCCO3)ccc12 [Example 3.35]
41 | 10 to 40 | – | C[C@@H]1CCC[C@H](C)N1CC(=O)N[C@@H](Cc1ccc(F)c(F)c1)C(=O)NCc1ccc2[nH]ccc2c1 [Example 34.05]
42 | 10 to 40 | – | Nc1nccc2cc(CNC(=O)[C@H](Cc3ccc(F)c(F)c3)NC(=O)c3ccc4cnccc4c3)ccc12 [Example 0.28]
43 | 10 to 40 | – | CC(C)N1CCC[C@@H]1C(=O)N[C@@H](Cc1ccc(F)c(F)c1)C(=O)NCc1cnc2[nH]ccc2c1 [Example 44.04]
44 | 10 to 40 | – | Nc1nccc2cc(CNC(=O)[C@H](Cc3ccc(F)c(F)c3)NC(=O)CN3CCOc4ccccc4C3)ccc12 [Example 3.33]
45 | 10 to 40 | – | Cc1ccc2cc(C(=O)N3CCC(C(=O)NCc4ccc5c(N)nccc5c4)C3)ccc2n1 (stereo not shown) [Example 32.01]
46 | 1 to 3 | – | CC1CCCC(C)N1CC(=O)N[C@@H](Cc1ccccc1Cl)C(=O)NCc1ccc2c(N)nccc2c1 (stereo partly shown) [Example 3.05]
47 | 10 to 40 | – | C[C@H](NC(=O)[C@@H](CCc1ccccc1)NS(C)(=O)=O)C(=O)NCc1ccc2[nH]cc(Cl)c2c1 [Example 9.16]
48 | 10 to 40 | – | Cn1nc(C(C)(C)C)cc1C(=O)N[C@@H](Cc1ccc(F)c(F)c1)C(=O)NCc1ccc2c(N)nccc2c1 [Example 0.88]
49 | 10 to 40 | – | CCC(C)[C@H](C(=O)NCC(=O)NCc1ccc2c(N)nccc2c1)N(C)C (stereo partly shown) [Example 18.103]
